The subject of one data set is CLA-1 promoter. Put plainly: CLA-1 promoter luciferase reporter gene activity in HepG2 cells. The data set is classed as cell-based, human. The note with it: HepG2, 24 hours; 2.8-22.4 mM D-glucose or 22.4 mM D-psicose. On the procedure:
Further, by integrating a 1200 by promoter region of the CLA-1 gene into a luciferase reporter gene, introducing the gene into a cell and measuring the luciferase activity, the transcriptional activity of CLA-1 was determined.
6. The transcriptional activity of CLA-1 was also examined. The luciferase reporter gene containing the CLA-1 promoter was introduced into HepG2 cells and the resulting HepG2 cells were cultured with 2.8 mM (lane 1), 5.6 mM (lane 2), 11.2 mM (lane 3), 22.4 mM (lane 4) D-glucose or 22.4 mM D-psicose for 24 hours and the luciferase activity was measured. A high concentration of D-glucose inhibited the activity of the CLA-1 promoter.

Data set [1] is described as follows: Basic safety tests (mutagenicity, biodegradability, oral acute toxicity, primary skin irritation, primary eye irritation). The note with it: biodegradability and three acute toxicity tests performed by a designated organization. From the text:
In the development of drugs, quasi drugs, foods and the like, the most important and the biggest hurdle is the verification of safety of a rare sugar as a novel substance. A mutagenicity test, a biodegradability test and three types of acute toxicity tests (an oral acute toxicity test, a primary skin irritation test and a primary eye irritation test) are defined as the most basic safety tests. A rare sugar is a monosaccharide that exists in nature even in a small amount, therefore, it can be predicted that it will be safe. However, it is necessary to perform verification precisely. We asked the designated organization to perform the basic safety tests for three types of rare sugars, D-psicose, D-allose and allitol among rare sugars.

On to `O=C(CO)[C@H](O)[C@H](O)[C@H](O)CO` [D-psicose], for which the “activity of the CLA-1 promoter (luciferase activity)” value in the data set on CLA-1 promoter is “did not affect”. In data set [1], the basic safety tests result is “there are not any problems in the safety”.

With `OC[C@@H](O)[C@@H](O)[C@@H](O)[C@@H](O)CO` [allitol], the basic safety tests entry in data set [1] is given as “there are not any problems in the safety”.

For `O=C[C@H](O)[C@@H](O)[C@H](O)[C@H](O)CO` [D-glucose, reference compound], the “activity of the CLA-1 promoter (luciferase activity)” value in the data set on CLA-1 promoter is given as “inhibited”.

With `O=C[C@H](O)[C@H](O)[C@H](O)[C@H](O)CO` [D-allose], the basic safety tests entry in data set [1] was “there are not any problems in the safety”.

The values above are taken from patent publication US20100222284A1, “COMPOSITION FOR INHIBITING THE ONSET OF ARTERIOSCLEROSIS AND INHIBITION METHOD” (priority 2004, published 2010).
